The results in this text go back to publication PMC3050433, “The effects of maribavir on the autophosphorylation of ganciclovir resistant mutants of the cytomegalovirus UL97 protein” (Herpesviridae, 2010).

The target in test [1] is T1, UL97 H662L (Human cytomegalovirus, UniProt Q68101, H662L).
T1 construct: PCR reaction to generate the full length UL97; honey bee melittin secretion signal (N); made in house; host or cells: Sf21 insect cells, recombinant baculovirus (pMelBac C)
T1 sequence (Q68101 1-707 H662L): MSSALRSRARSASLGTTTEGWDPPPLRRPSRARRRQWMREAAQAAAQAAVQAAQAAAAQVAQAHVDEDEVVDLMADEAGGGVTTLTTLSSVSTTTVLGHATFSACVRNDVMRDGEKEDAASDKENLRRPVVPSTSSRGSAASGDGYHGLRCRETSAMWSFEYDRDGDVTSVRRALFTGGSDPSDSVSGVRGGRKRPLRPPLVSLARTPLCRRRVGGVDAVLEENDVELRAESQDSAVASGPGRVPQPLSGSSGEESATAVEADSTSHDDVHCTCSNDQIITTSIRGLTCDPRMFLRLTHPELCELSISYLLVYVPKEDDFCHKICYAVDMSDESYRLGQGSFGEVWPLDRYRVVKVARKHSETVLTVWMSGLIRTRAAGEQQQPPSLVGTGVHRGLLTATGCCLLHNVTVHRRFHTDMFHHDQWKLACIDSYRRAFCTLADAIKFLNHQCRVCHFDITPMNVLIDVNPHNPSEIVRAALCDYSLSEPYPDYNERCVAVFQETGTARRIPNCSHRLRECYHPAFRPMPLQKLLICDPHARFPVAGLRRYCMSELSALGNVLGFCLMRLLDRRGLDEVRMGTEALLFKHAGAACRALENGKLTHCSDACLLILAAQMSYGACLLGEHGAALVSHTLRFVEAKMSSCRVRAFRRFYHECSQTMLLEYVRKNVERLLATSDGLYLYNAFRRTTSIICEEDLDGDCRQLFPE
As to the kind of experiment: UL97 autophosphorylation protein kinase assay, H662L. In kind it is biochemical. The settings on record: H662L mutant. As for the experimental part:
(§1) Analysis of the autophosphorylation of wild type and mutant UL97 protein species was performed by a standard protein kinase assay as previously described (46). Briefly, purified protein was added to 2× protein kinase buffer (100 mM Tris HCl, pH9.0, 20 mM MgCl2, 10 μM ATP, 4 mM DTT, 2 M NaCl) and 370 KBq [γ^32P] ATP (Amersham), made up to 20 μl with SDW and incubated at 37°C. The reactions were terminated by the addition of 2× SDS sample buffer followed by boiling for 3 minutes. The amount of radiolabelled phosphate incorporated by autophosphorylation was analysed by SDS-PAGE and measured using the Biorad Mulitanalyst. The protein kinase assays were initially performed for 2 to 60 minutes to determine the maximum rate of phosphate incorporation, all assays were then performed at the maximum rate which equated to 5 minutes.
(§2) Enzyme kinetic analysis was performed on the purified wild type and mutant UL97 protein species as above using increasing concentrations of ATP (2 μM to 20 μM). The amount of incorporated radiolabelled phosphate was plotted against the concentration of ATP in a Lineweaver Burke plot to determine the Km for ATP for each UL97 species. […]

The target of test [2] is T2, UL97 V665I (Human cytomegalovirus, UniProt Q68101, V665I).
T2 construct: PCR reaction to generate the full length UL97; honey bee melittin secretion signal (N); made in house; host or cells: Sf21 insect cells, recombinant baculovirus (pMelBac C)
T2 sequence (Q68101 1-707 V665I): T1 sequence (Q68101 1-707 H662L) with L662H, V665I
Briefly: UL97 autophosphorylation protein kinase assay, V665I. It is filed as biochemical. Particulars: V665I mutant. As for the experimental part:
as §1, §2

Test [3] concerns wild type and mutant UL97 proteins. As to the kind of experiment: UL97 autophosphorylation protein kinase assay, all UL97 species pooled. Particulars: maribavir 0.5 μM; every form of UL97 investigated (mutant and wild type). In kind it is biochemical, human cytomegalovirus. As for the experimental part: as §1, §2

A word on the IC50: it is the concentration that inhibits the measured activity by half.

Substitutions are numbered along the chain they refer to.

In the case of `CC(C)Nc1nc2cc(Cl)c(Cl)cc2n1[C@H]1O[C@@H](CO)[C@H](O)[C@@H]1O` [maribavir, 5,6-dichloro-2-(isopropylamino)-1-beta-L-ribofuranosyl-1H-benzimidazole], the figures for the IC50 in test [1] and in test [2] were 40 nM and 30 nM, respectively. The “autophosphorylation as % of total phosphorylation of the wild type UL97 protein” value in test [3] is “below 10%”.
